ChEMBL document CHEMBL1201862, “PubChem BioAssay data set” (2004)
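96-well plates; 48 h exposure; 5 concentrations. Endpoints by linear interpolation between flanking doses. Not reached: highest tested concentration assigned. The concentration for 50% growth inhibition is given as GI50.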 Active and inactive are the calls of the source. No stated cut-off is given here; in the data, active = GI50 up to about 1.1 µM and inactive = higher.

What was measured:
Test in all cases: inhibition of tumour cell growth, NCI panel, 48 h
[1] = tested on: 786-0
[2] = tested on: A549
[3] = tested on: ACHN
[4] = tested on: BT-549
[5] = tested on: CAKI-1
[6] = tested on: CCRF-CEM
[7] = tested on: COLO 205
[8] = tested on: DU-145
[9] = tested on: EKVX
[10] = tested on: HCC 2998
[11] = tested on: HCT-116
[12] = tested on: HCT-15
[13] = tested on: HOP-62
[14] = tested on: HOP-92
[15] = tested on: HT-29
[16] = tested on: Hs-578T
[17] = tested on: IGROV-1
[18] = tested on: K562
[19] = tested on: KM12
[20] = tested on: LOX IMVI
[21] = tested on: M14
[22] = tested on: MCF7
[23] = tested on: MDA-MB-231
[24] = tested on: MDA-MB-435
[25] = tested on: MDA-N
[26] = tested on: MOLT-4
[27] = tested on: Malme-3M
[28] = tested on: NCI-H23
[29] = tested on: NCI-H460
[30] = tested on: NCI-H522
[31] = tested on: NCI/ADR-RES
[32] = tested on: OVCAR-3
[33] = tested on: OVCAR-4
[34] = tested on: OVCAR-5
[35] = tested on: OVCAR-8
[36] = tested on: PC-3
[37] = tested on: RPMI-8226
[38] = tested on: RXF 393
[39] = tested on: SF-268
[40] = tested on: SF-295
[41] = tested on: SF-539
[42] = tested on: SK-MEL-28
[43] = tested on: SK-MEL-2
[44] = tested on: SK-MEL-5
[45] = tested on: SK-OV-3
[46] = tested on: SN12C
[47] = tested on: SNB-19
[48] = tested on: SNB-75
[49] = tested on: SW-620
[50] = tested on: T47D
[51] = tested on: TK-10
[52] = tested on: U-251
[53] = tested on: UACC-257
[54] = tested on: UACC-62
[55] = tested on: UO-31
[56] = tested on: HL-60
[57] = tested on: NCI-H226
[58] = tested on: SR

COc1cc(C2SCC(=O)N2c2ccc(NC(=O)c3ccc(N4C(=O)CSC4c4cc(OC)c(OC)c(OC)c4)cc3)cc2)cc(OC)c1OC (stereo not given)
GI50 [1]: 70 µM (inactive) | GI50 [2]: > 100 µM (inactive) | GI50 [3]: 63.7 µM (inactive) | GI50 [4]: 56 µM (inactive) | GI50 [5]: > 100 µM (inactive) | GI50 [6]: 45.5 µM (inactive) | GI50 [7]: > 100 µM (inactive) | GI50 [8]: > 100 µM (inactive) | GI50 [9]: 57 µM (inactive) | GI50 [10]: > 100 µM (inactive) | GI50 [11]: 35.1 µM (inactive) | GI50 [12]: 38.5 µM | GI50 [13]: 76.4 µM (inactive) | GI50 [14]: 16.4 µM (inactive) | GI50 [15]: 93.1 µM (inactive) | GI50 [16]: 68.1 µM (inactive) | GI50 [17]: 32.4 µM (inactive) | GI50 [18]: 37.9 µM (inactive) | GI50 [19]: 33 µM (inactive) | GI50 [20]: 31.8 µM (inactive) | GI50 [21]: 73.1 µM (inactive) | GI50 [22]: 43.3 µM (inactive) | GI50 [23]: > 100 µM (inactive) | GI50 [24]: 20.6 µM (inactive) | GI50 [25]: 23.1 µM (inactive) | GI50 [26]: 34.8 µM (inactive) | GI50 [27]: 79.1 µM (inactive) | GI50 [28]: 49.4 µM (inactive) | GI50 [29]: > 100 µM (inactive) | GI50 [30]: 40.2 µM (inactive) | GI50 [31]: 25.2 µM (inactive) | GI50 [32]: 37.1 µM (inactive) | GI50 [33]: 33 µM (inactive) | GI50 [34]: 95.1 µM (inactive) | GI50 [35]: 40.3 µM (inactive) | GI50 [36]: 58.3 µM (inactive) | GI50 [37]: 28.9 µM (inactive) | GI50 [38]: 58.6 µM (inactive) | GI50 [39]: 81.3 µM (inactive) | GI50 [40]: 29.3 µM (inactive) | GI50 [41]: 42.7 µM (inactive) | GI50 [42]: 42.5 µM (inactive) | GI50 [43]: 91.6 µM (inactive) | GI50 [44]: 46.3 µM (inactive) | GI50 [45]: > 100 µM (inactive) | GI50 [46]: > 100 µM (inactive) | GI50 [47]: 84.1 µM (inactive) | GI50 [48]: 22.2 µM (inactive) | GI50 [49]: 36.9 µM (inactive) | GI50 [50]: 19.8 µM (inactive) | GI50 [51]: > 100 µM (inactive) | GI50 [52]: 49.3 µM (inactive) | GI50 [53]: 60.5 µM (inactive) | GI50 [54]: 24.9 µM (inactive) | GI50 [55]: 67.1 µM (inactive)

O=C1CC(/C=C/c2ccco2)=C(O)C1=O
GI50 [2]: 23.9 µM (inactive) | GI50 [3]: 15.9 µM (inactive) | GI50 [4]: 8.49 µM (inactive) | GI50 [5]: 14.6 µM (inactive) | GI50 [6]: 3 µM (inactive) | GI50 [7]: 15.7 µM (inactive) | GI50 [8]: 16.2 µM (inactive) | GI50 [9]: 15.7 µM (inactive) | GI50 [10]: 17.9 µM (inactive) | GI50 [11]: 13.6 µM (inactive) | GI50 [12]: 13.5 µM | GI50 [56]: 33.7 µM (inactive) | GI50 [13]: 1.84 µM (inactive) | GI50 [14]: 13.8 µM (inactive) | GI50 [15]: 11.7 µM (inactive) | GI50 [16]: 16.7 µM (inactive) | GI50 [17]: 10.7 µM (inactive) | GI50 [18]: 12.1 µM (inactive) | GI50 [19]: 13.8 µM (inactive) | GI50 [20]: 12.8 µM (inactive) | GI50 [21]: 14.8 µM (inactive) | GI50 [22]: 7.01 µM (inactive) | GI50 [23]: 17.7 µM (inactive) | GI50 [24]: 16.4 µM (inactive) | GI50 [25]: 12.3 µM (inactive) | GI50 [26]: 14 µM (inactive) | GI50 [27]: 11.6 µM (inactive) | GI50 [57]: 22 µM (inactive) | GI50 [28]: 11.6 µM (inactive) | GI50 [29]: 17.6 µM (inactive) | GI50 [30]: 12.2 µM (inactive) | GI50 [31]: 24.2 µM (inactive) | GI50 [32]: 13 µM (inactive) | GI50 [33]: 14.2 µM (inactive) | GI50 [34]: 13.9 µM (inactive) | GI50 [35]: 13.8 µM (inactive) | GI50 [36]: 10.2 µM (inactive) | GI50 [37]: 13.2 µM (inactive) | GI50 [38]: 9.59 µM (inactive) | GI50 [39]: 18.6 µM (inactive) | GI50 [40]: 19.5 µM (inactive) | GI50 [41]: 13.9 µM (inactive) | GI50 [42]: 28.8 µM (inactive) | GI50 [43]: 16.4 µM (inactive) | GI50 [44]: 13.7 µM (inactive) | GI50 [45]: 21.9 µM (inactive) | GI50 [46]: 13.6 µM (inactive) | GI50 [47]: 14.8 µM (inactive) | GI50 [48]: 16 µM (inactive) | GI50 [58]: 6.05 µM (inactive) | GI50 [49]: 10.2 µM (inactive) | GI50 [50]: 14.2 µM (inactive) | GI50 [51]: 22.5 µM (inactive) | GI50 [52]: 13.6 µM (inactive) | GI50 [53]: 15.7 µM (inactive) | GI50 [54]: 15.3 µM (inactive) | GI50 [55]: 20.7 µM (inactive)

COc1ccc(N2C(=O)C3c4[nH]c5ccccc5c4C4CCC(C(C)(C)C)CC4C3C2=O)c(C)c1 (stereo not given)
GI50 [1]: > 100 µM (inactive) | GI50 [2]: > 100 µM (inactive) | GI50 [3]: > 100 µM (inactive) | GI50 [4]: > 100 µM (inactive) | GI50 [5]: > 100 µM (inactive) | GI50 [6]: > 100 µM (inactive) | GI50 [7]: > 100 µM (inactive) | GI50 [8]: > 100 µM (inactive) | GI50 [9]: > 100 µM (inactive) | GI50 [10]: > 100 µM (inactive) | GI50 [11]: > 100 µM (inactive) | GI50 [12]: > 100 µM | GI50 [56]: > 100 µM (inactive) | GI50 [13]: > 100 µM (inactive) | GI50 [15]: > 100 µM (inactive) | GI50 [16]: 51.3 µM (inactive) | GI50 [17]: > 100 µM (inactive) | GI50 [18]: > 100 µM (inactive) | GI50 [19]: > 100 µM (inactive) | GI50 [21]: > 100 µM (inactive) | GI50 [22]: > 100 µM (inactive) | GI50 [23]: > 100 µM (inactive) | GI50 [24]: > 100 µM (inactive) | GI50 [25]: > 100 µM (inactive) | GI50 [26]: > 100 µM (inactive) | GI50 [57]: > 100 µM (inactive) | GI50 [28]: > 100 µM (inactive) | GI50 [29]: > 100 µM (inactive) | GI50 [30]: > 100 µM (inactive) | GI50 [31]: > 100 µM (inactive) | GI50 [32]: > 100 µM (inactive) | GI50 [33]: > 100 µM (inactive) | GI50 [35]: > 100 µM (inactive) | GI50 [36]: > 100 µM (inactive) | GI50 [37]: > 100 µM (inactive) | GI50 [38]: > 100 µM (inactive) | GI50 [39]: > 100 µM (inactive) | GI50 [40]: > 100 µM (inactive) | GI50 [41]: > 100 µM (inactive) | GI50 [42]: > 100 µM (inactive) | GI50 [44]: > 100 µM (inactive) | GI50 [45]: > 100 µM (inactive) | GI50 [46]: > 100 µM (inactive) | GI50 [47]: > 100 µM (inactive) | GI50 [48]: > 100 µM (inactive) | GI50 [58]: > 100 µM (inactive) | GI50 [49]: > 100 µM (inactive) | GI50 [50]: > 100 µM (inactive) | GI50 [51]: > 100 µM (inactive) | GI50 [52]: > 100 µM (inactive) | GI50 [53]: > 100 µM (inactive) | GI50 [54]: > 100 µM (inactive) | GI50 [55]: > 100 µM (inactive)
